The values below come from patent US20180368393A1, “PRE- AND POST-STORAGE STRESS RESPONSE CONDITIONING” (CPSI HOLDINGS LLC, priority 2017, published 2018).

Entries after “also recorded” stand apart in the source; their conditions may differ. Where a SMILES comes first, the peptide text is derived from it. The star is where a group is joined. Cbz = O=C(OCc1ccccc1)*; CH2F = FC*

The test system of one test is human endothelial cells. Briefly: Human endothelial cell monolayer survival and repopulation following cryopreservation (Calcein-AM assay). The format is cell-based. The conditions noted are these: for post-thaw viability: P/P conditioning, U10 and U5G10 CP solutions vs matched non-treated samples; for day 1 survival increase over non-treated samples: U10G10. On the procedure: A series of cryopreservation experiments was conducted on human endothelial and smooth muscle cell suspensions and monolayers to assess the performance of four (4) commercially available cryopreservation solutions: DP6, VS55, VS83, and M22, as well as nine (9) additional solutions: […] Eurocollins (EC) solution was included as a negative control, i.e., no cryoprotective agent (CPA) control, while media+10% DMSO ([…]) is a typical solution (10% DMSO) used in standard controlled rate cryopreservation protocols known to the skilled individual. Unisol is representative of the class of intracellular-like or intracellular-type solutions/media, whereas EC solution and culture media are representative of the class of extracellular-like or extracellular-type solutions/media. Other studies presented herein provide additional examples of intracellular- and extracellular-like solutions; other intracellular- and extracellular-like solutions are similarly useful and are known to those of skill in the art. FIG. 1 illustrates the results of an assessment of human endothelial cell survival following preservation. Monolayers of endothelial cells were frozen or vitrified and thawed in the indicated solutions (control, Uni, […], DP6, VS55, VS83, and […]). Following thawing, samples were diluted in culture media, placed into culture and assessed for viability at 1 day (24 hours) post-thaw and following seven (7) days of recovery using the Calcein-AM assay. […] The Uni and U10 conditions provided outcomes exceeding that of the VS55, VS83 and […] conditions. Therefore, subsequent studies (see, e.g., FIG. 2) focused on Unisol-based solutions with various CPAs and concentrations, in addition to the DP6 commercial cryopreservation solution. […] Monolayers of endothelial cells were frozen or vitrified and thawed in the indicated solutions. […] For pre-freeze (PF), post-warming (PW) and pre/post (P/P) conditioning studies, molecular modulation agents targeting inhibition of apoptosis (Caspase inhibitor IV, 8, 9 and a combination of Caspases 8 and 9), reduction of free-radical damage (resveratrol and NAC), and activation of the unfolded protein response (salubrinal) were employed as supplements in the media 1 hour prior to freezing (pre-freeze condition) or for 1 day following thawing and CPA removal from frozen samples (post-warming condition). Based on outcomes in the studies in Example 1, PF, PW and P/P conditioning were examined in Examples 2-3 using a series of Unisol-based solutions (Uni, U5, U10, U20, UG10, U5G10 and U10G10). […] Patent Application Publication No. US 2016/0097583 A1 (Ser. No. 14/876,087), which is incorporated by reference in its entirety as though fully set forth herein. The freeze and thaw process was slightly modified relative to the disclosure of U.S. Patent Application Publication No. US 2016/0097583 A1 by the addition of a 0.090 inch aluminum plate inserted into the bottom of the 96 well plate to aid in increasing cooling and heating uniformity throughout the plate, thereby reducing the well-to-well variability within the samples. The device was used to thaw the samples, which were frozen in situ in monolayers in standard 96-well tissue culture plates. […] A mitochondrial-mediated apoptotic inhibitor (Caspase 9) and a membrane-mediated apoptotic inhibitor (Caspase 8) were investigated to evaluate the involvement and impact of modulation of various apoptotic induction pathways. Additionally, a pan-Caspase inhibitor (Cas IV) was also investigated to assess the impact of global pathway modulation. As with the viability studies, cell survival and repopulation were assessed using Calcein-AM assays and analyzed using fluorescent microscopy (Zeiss). Survival was determined at 24 hours post-thaw to allow for the manifestation of any delayed onset cell death pathways to be executed. Further, cell recovery was included to evaluate the long term potency and repopulation potential of the various samples. […]

Test [1] relates to human smooth muscle cells. Briefly: Human smooth muscle cell monolayer survival and repopulation following cryopreservation (Calcein-AM assay). It counts as cell-based. On the procedure:
(§1) The device was used to thaw the samples, which were frozen in situ in monolayers in standard 96-well tissue culture plates. Samples were thawed from less than −170° C. to about 4° C. in the 96-well plate format in about 5 mins in a dry clean (“sterile”) environment.
The study described in example 3.1 focuses on the collection of cell survival data and the impact of post-thaw conditioning on human smooth muscle cells (SMCs). Specific activities included application of the high throughput monolayer sample cryopreservation protocol and collection of data (survival and cell death) from samples frozen using 6 unique cryopreservation solutions (U5, U10, U20, U5G10, U10G10, DP6) and 6 unique modulators (resveratrol, salubrinal, caspase inhibitors (IV, 8, 9) and NAC). Survival was determined at 24 hours post-thaw to allow for the manifestation of any delayed onset cell death pathways to be executed. Further, cell recovery was included to evaluate the long term potency and repopulation potential of the various samples.
A series of experiments was conducted to evaluate the performance of several solutions (U5, U10, U20, U5G10, U10G10 and DP6) as well as the impact of pre-freeze (PF) and post-warming (PW) conditioning with the apoptotic inhibitors Caspase 8, Caspase 9 and Caspase IV inhibitors. Cell samples were processed using the monolayer CP protocol and analyzed following 24 hours to 7 days post thaw for survival and recovery. These experiments were conducted to evaluate the impact of molecular modulators (inhibitors) during pre-freeze or post-thaw recovery on cell survival when added to the media 1 hour prior to or 24 hour following cryopreservation. […] To this end, samples were probed with Calcein-AM, incubated for 30 mins in the dark and then imaged using a Zeiss Axiovert 200 fluorescence microscope and Axiovision software. Images were taken at 24 hours to 7 days post-thaw to allow for assessment of solution and post-thaw conditioning agent performance.
As in previous experiments, the 24 hour time point was used for initial survival assessment, as this time point allows for the manifestation of molecular based cell stress-induced death. This provides a more accurate measure of survival than 0 or 1 hour post-thaw assessment, as is typically used. The 3 day time point was selected to assess re-population potential of any surviving cells as an indicator of long term potency.
For smooth muscle cell pre-freeze (PF) conditioning studies, 1 hour prior to CP addition, culture media was decanted and 100 μL of fresh media supplemented with caspase 8, 9, or IV was added to each respective well. Samples were then incubated at 37° C. for 1 hour, followed by media removal and addition of 100 μL of CP solution to samples followed by cryopreservation as described above. Following preservation, samples were thawed, diluted, and placed into culture. Following 24 hours recovery, cell viability was assessed.
For smooth muscle cell post-warming (PW) conditioning studies, following thawing and cryopreservation, CP solution was removed or diluted with culture media supplemented with caspase 8, 9, or IV. FIG. 18 illustrates the impact of apoptotic inhibition post-freeze conditioning on human smooth muscle cell survival 1 day following cryopreservation with and without reduced CPA.
For P/P conditioning studies, 1 hour prior to CP addition, culture media was decanted and 100 μL of fresh media supplement with caspase 8, 9, or IV was added to each respective well.

Test [2] concerns endothelial and smooth muscle cells. Briefly: Summary of Examples 2-3: post-thaw survival of endothelial and smooth muscle cells (Calcein-AM assay). It counts as cell-based, human. As to the method: For pre-freeze (PF), post-warming (PW) and pre/post (P/P) conditioning studies, molecular modulation agents targeting inhibition of apoptosis (Caspase inhibitor IV, 8, 9 and a combination of Caspases 8 and 9), reduction of free-radical damage (resveratrol and NAC), and activation of the unfolded protein response (salubrinal) were employed as supplements in the media 1 hour prior to freezing (pre-freeze condition) or for 1 day following thawing and CPA removal from frozen samples (post-warming condition).
as §1
The P/P regime was followed by PW using Caspase 8 inhibition or NAC inhibition.

Test [3] concerns human hematopoietic stem cells (hHSC). Briefly: Human hematopoietic stem cell survival following cryopreservation (Calcein-AM assay). It counts as cell-based. The conditions noted are these: cryopreserved in DMSO 10%. On the procedure:
The studies described in example 4 focus on the collection of cell survival data and the impact of post-thaw conditioning on human stem cells (hHSCs). Specific activities included standard cryopreservation protocol and collection of data (survival and cell death) from samples frozen using 6 unique cryopreservation solutions (Media, M5, M10, Unisol, U5 and U10) and 4 unique modulators (resveratrol (OSI), salubrinal (UPRI), caspase inhibitor (AI) and NAC). Survival was determined at 24 hours post-thaw to allow for the manifestation of any delayed onset cell death pathways to be executed. […]
A series of experiments was conducted to evaluate the performance of several solutions (media, M5, M10, Unisol, U5, and U10) as well as the impact of post-warming (PW) conditioning with the molecular modulators. Cell samples were processed using a standard controlled rate cooling suspension protocol and analyzed following 24 hours to 7 days post thaw for survival and recovery. […] To this end, samples were probed with Calcein-AM, incubated for 30 mins in the dark and then imaged using a Zeiss Axiovert 200 fluorescence microscope and Axiovision software. […]
For hHSC post-warming (PW) conditioning studies, following thawing each sample was diluted with culture media supplemented with the respective molecular modulator added to the dilution media. Samples were incubated in culture for 24 hours, then assessed. […]

Setting [4] is: PF and PW caspase inhibitor conditioning, U10G10 solution.
[5] abbreviates: PF conditioning, U10, U20, U5G10 and U10G10.
The mark [6] stands for this setting: P/P conditioning, vs non-conditioned samples.

On to `CC[C@H](C)[C@H](NC(=O)OCc1ccccc1)C(=O)N[C@@H](CCC(=O)OC)C(=O)N[C@H](C(=O)N[C@@H](CC(=O)OC)C(=O)CF)[C@@H](C)O` [Caspase 8 inhibitor] (Cbz-IE(OMe)TD(OMe)-CH2F), for which, in the test with human endothelial cells (P/P caspase inhibitor conditioning, Unisol+CPA samples vs non-treated matched samples), the “day 1 cell survival / post-thaw viability” value is “improvement in cell survival”. Besides, the “cell repopulation / day 3 recovery” value is recorded as “most beneficial; also recorded: marked improvement in all solutions in day 3 recovery” in the test on human endothelial cells (P/P caspase inhibitor conditioning, Unisol+CPA solutions and DP6); “marked improvement in day 3 recovery” in test [1] (P/P caspase inhibitor conditioning, Unisol+CPA conditions and DP6). Also, the “cell recovery and repopulation (overall)” value with human endothelial cells (setting [4]) was “improvement in cell recovery and repopulation”. Further, the “recovery at 3 days post-thaw” value is given as “improvement in recovery” with human endothelial cells (PF caspase inhibitor conditioning, Unisol+CPA conditions) and “complete recovery of the samples to pre-freeze controls” in test [1] (PW caspase inhibitor conditioning). The “day 3 recovery” value in the test on human endothelial cells (PW caspase inhibitor conditioning, U10, U20 and U5G10 vs non-treated) is “marked improvement in day 3 recovery”. In addition, the “cell recovery 3 days post-thaw” value with human endothelial cells (PW caspase inhibitor conditioning, Unisol+CPA conditions) is listed as “improvement in cell recovery”. In addition, the “day 1 cell survival” value in the test on human endothelial cells (post-warming (PW) caspase inhibitor conditioning 24 hours, Unisol+CPA solutions, vs non-treated matched samples) is “overall increase in cell survival”; in the test on human endothelial cells (post-warming (PW) caspase inhibitor conditioning 24 hours, Unisol+CPA solutions, vs non-treated matched samples, listed as Caspase 8), “slight improvement in cell survival”; in test [1] (PW caspase inhibitor conditioning, Unisol+CPA solutions), “slight increase in cell survival”. Further, the cell survival in the test with human endothelial cells (pre/post (P/P) caspase inhibitor conditioning, U10G10 solution, day 1) was around 90%. Also, the “increase over non-treated U10G10 samples” value in test [1] (P/P caspase inhibitor conditioning, U10G10, day 1 survival) was around 50%. The “day 1 survival, % of controls” value in test [1] (P/P caspase inhibitor conditioning, U10G10, listed as Caspase 8) is around 60%; in test [1] (P/P caspase inhibitor conditioning, U10G10, listed as caspase 8), “about 70%”; in test [1] (P/P caspase inhibitor conditioning, U10G10, listed as caspase 8 inhibitor), around 70%. Moreover, the “smooth muscle cell recovery and repopulation (overall)” value in test [1] (setting [4]) is “improvement in smooth muscle cell recovery and repopulation”. In addition, the “day 1 post-thaw cell survival and cell recovery” value in test [2] (PF, PW and P/P conditioning, Unisol based solutions) is “improved”. Also, the “increase in cell survival over non-treated samples” value in test [2] (PW conditioning) is around 50%. In test [2] (U10G10, P/P conditioning, day 1), the “increase in survival over non-treated samples” value was above 2 fold.

Take `C[S+](C)[O-]` [DMSO, dimethyl sulfoxide]: in test [3], the cell loss rates entry was “greater than 50%”.

With `O=C(/C=C/c1ccccc1)NC(NC(=S)Nc1cccc2cccnc12)C(Cl)(Cl)Cl` (stereo not drawn) [salubrinal], the post-thaw viability entry in the test with human endothelial cells is on record as “increase in post-thaw viability”. For the same compound, the “day 1 cell survival” value in the test on human endothelial cells (setting [5]) is on record as “Improvement”; in test [1] (setting [6]) it was “slight to no improvement in cell survival”; in test [1] (PW conditioning, vs non-treated matched samples), “minimal benefit”.

On to `Oc1ccc(C=Cc2cc(O)cc(O)c2)cc1` [resveratrol], for which the post-thaw viability result in the test on human endothelial cells is reported as “increase in post-thaw viability”. For the same compound, the “day 1 survival increase over non-treated samples” value in the test with human endothelial cells (PF conditioning 1 hour) and in the test with human endothelial cells (PW conditioning 24 hours) was around 2 fold in each case. Moreover, the results for the “day 1 cell survival” value (in the test with human endothelial cells (setting [5]); in test [1] (setting [6])) were “Improvement” and “slight to no improvement in cell survival”, respectively.
